According to ChEMBL document CHEMBL1201862, “PubChem BioAssay data set” (2004):
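Dose response: 5 concentrations. Exposure: 48 h. Format: 96-well plates. Endpoint: linear interpolation; highest concentration if not reached. The concentration for 50% growth inhibition is given as GI50.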 The source made the active and inactive calls. Rule as the data show it: active = GI50 up to about 1.1 µM and inactive = higher.

Legend:
Assay in all cases: NCI-60 cell line screen, 48 h
Malme-3M = system: Malme-3M
OVCAR-4 = system: OVCAR-4
RPMI-8226 = system: RPMI-8226
A498 = system: A498
T47D = system: T47D
HT-29 = system: HT-29
SR = system: SR
DU-145 = system: DU-145
HCT-15 = system: HCT-15
TK-10 = system: TK-10
A549 = system: A549
SNB-75 = system: SNB-75
IGROV-1 = system: IGROV-1
SK-MEL-28 = system: SK-MEL-28
MDA-MB-435 = system: MDA-MB-435
MDA-N = system: MDA-N
PC-3 = system: PC-3
SF-539 = system: SF-539
MDA-MB-231 = system: MDA-MB-231
SK-MEL-5 = system: SK-MEL-5

Structure (SMILES) | GI50 (Malme-3M) | GI50 (OVCAR-4) | GI50 (RPMI-8226) | GI50 (A498) | GI50 (T47D) | GI50 (HT-29) | GI50 (SR) | GI50 (DU-145) | GI50 (HCT-15) | GI50 (TK-10) | GI50 (A549) | GI50 (SNB-75) | GI50 (IGROV-1) | GI50 (SK-MEL-28) | GI50 (MDA-MB-435) | GI50 (MDA-N) | GI50 (PC-3) | GI50 (SF-539) | GI50 (MDA-MB-231) | GI50 (SK-MEL-5)
COC(=O)c1ccc(-n2c(C)nc(=O)c(-c3ccccc3)c2C)cc1 | > 100 µM (inactive) | > 100 µM (inactive) | > 100 µM (inactive) | > 100 µM (inactive) | > 100 µM (inactive) | > 100 µM (inactive) | > 100 µM (inactive) | > 100 µM (inactive) | > 100 µM | > 100 µM (inactive) | > 100 µM (inactive) | > 100 µM (inactive) | > 100 µM (inactive) | > 100 µM (inactive) | > 100 µM (inactive) | > 10 µM (inactive) | > 100 µM (inactive) | 74 µM (inactive) | > 100 µM (inactive) | > 100 µM (inactive)
O=C(O)CC1NCc2cc3ccccc3nc21 (stereo not given) | > 100 µM (inactive) | > 100 µM (inactive) | > 100 µM (inactive) | > 100 µM (inactive) | > 100 µM (inactive) | > 100 µM (inactive) | > 100 µM (inactive) | > 100 µM (inactive) | > 100 µM | > 100 µM (inactive) | > 100 µM (inactive) | > 100 µM (inactive) | > 100 µM (inactive) | > 100 µM (inactive) | > 100 µM (inactive) | > 100 µM (inactive) | > 100 µM (inactive) | > 100 µM (inactive) | > 100 µM (inactive) | > 100 µM (inactive)
O=C(CC(NC(=O)C(F)(F)F)C(=O)O)OCc1ccccc1 (stereo not given) | > 100 µM (inactive) | > 100 µM (inactive) | > 100 µM (inactive) | > 100 µM (inactive) | > 100 µM (inactive) | > 100 µM (inactive) | > 100 µM (inactive) | > 100 µM (inactive) | > 100 µM | > 100 µM (inactive) | > 100 µM (inactive) | > 100 µM (inactive) | > 100 µM (inactive) | > 100 µM (inactive) | > 100 µM (inactive) | > 100 µM (inactive) | > 100 µM (inactive) | > 100 µM (inactive) | > 100 µM (inactive) | > 100 µM (inactive)
Cc1nc2ccccc2n1COC(Cn1ccnc1)c1ccc(Cl)cc1Cl (stereo not given) | > 100 µM (inactive) | 30.4 µM (inactive) | 35.2 µM (inactive) | > 100 µM (inactive) | 41.7 µM (inactive) | 62.2 µM (inactive) | 60.3 µM (inactive) | > 100 µM (inactive) | 34.8 µM | 83.9 µM (inactive) | 72.4 µM (inactive) | 53.6 µM (inactive) | > 100 µM (inactive) | > 100 µM (inactive) | 50.1 µM (inactive) | 48.8 µM (inactive) | 23.4 µM (inactive) | > 100 µM (inactive) | > 100 µM (inactive) | 22.4 µM (inactive)
CSCCC(N)C(=O)NCCNc1ccc(NCCNC(=O)C(N)CCSC)c2c1C(=O)c1ccccc1C2=O (stereo not given) | 1.89 µM (inactive) | 1.67 µM (inactive) | 1.35 µM (inactive) | 1.72 µM (inactive) | 2.5 µM (inactive) | 0.535 µM (active) | 0.197 µM (active) | 0.798 µM (active) | 1.22 µM | 2.09 µM (inactive) | 0.579 µM (active) | 1.57 µM (inactive) | 2.12 µM (inactive) | 1.75 µM (inactive) | 1.86 µM (inactive) | 1.69 µM (inactive) | 1.84 µM (inactive) | 0.973 µM (active) | 1.16 µM (inactive) | 3.48 µM (inactive)
